# Measurements reported in paper PMC8588511, “Chromane Derivatives from Underground Parts of Iris tenuifolia and Their In Vitro Antimicrobial, Cytotoxicity and Antiproliferative Evaluation” (Molecules, 2021).
# Like-named read-outs stand apart in the source and are kept apart here.
# Key:
# [1] = test system: HUVEC, K-562, THP-1, A549, and HeLa cell lines; assay: antiproliferative and cytotoxicity assays, all applied cell lines; format: cell-based
# Description: The tested compounds were dissolved in DMSO, and the cells were seeded in 96-well plates at a density of 1 × 10^4 cells/well. […] With regard to the cytotoxic assay, HeLa cells were pre-incubated for 48 h without the test compounds. Then, the cells were exposed with different concentrations of compounds and incubated for 72 h. […] Under our experimental conditions, the optical density measured from the CellTiter-Blue reagent and methylene blue assay is proportional to the number of viable cells. In this experiment, absorbances were measured at 570 nm against the reference wavelength of 600 nm (CellTiter-Blue assay) and at 660 nm (methylene blue assay). […] A repeat determination has been conducted in all experiments, and four replicates were assayed. The calculations of the different values of GI50 and CC50 were performed with software Magellan version 3.00 (Tecan Trading AG, Maennedorf, Switzerland).
# [2] = cytotoxicity assay (methylene blue); format: cell-based, human; conditions: human, HeLa, 72 h, read-out: Cytotoxicity CC50 (CI 95%)
# Description: (§1) In this assay, K-562 (DSM ACC 10), THP-1 (DSM ACC 16), and HeLa (DSM ACC 57) were maintained in Roswell Park Memorial Institute (RPMI) 1640 medium (Cambrex 12-167F) while HUVEC (ATCC CRL-1730) and A549 (DSM ACC 107) were cultured in Dulbecco’s Modified Eagle’s Medium (DMEM) (Cambrex 12-614F). Cells that were grown in the appropriate cell culture medium were supplemented with 10 mL/L ultraglutamine 1 (Cambrex 17-605E/U1), 550 µL/L (50 mg/mL) gentamicin sulfate (Cambrex 17-518Z), and 10% heat inactivated fetal bovine serum (GIBCO Life Technologies 10270-106) at 37 °C. The tested compounds were dissolved in DMSO, and the cells were seeded in 96-well plates at a density of 1 × 10^4 cells/well. As for the antiproliferative effect of the compounds, the cells were incubated for 72 h, and GI50 values were evaluated to be defined as the concentration causing 50% inhibition of proliferation compared to the untreated control. With regard to the cytotoxic assay, HeLa cells were pre-incubated for 48 h without the test compounds. Then, the cells were exposed with different concentrations of compounds and incubated for 72 h. After that, the adherent HeLa cells were fixed by glutaraldehyde and stained with a 0.05% solutions of methylene blue (SERVA 29198) for 15 min. CC50 was evaluated to be defined as the concentration required for the death of 50% of the cell monolayer as compared to control groups. Under our experimental conditions, the optical density measured from the CellTiter-Blue reagent and methylene blue assay is proportional to the number of viable cells. In this experiment, absorbances were measured at 570 nm against the reference wavelength of 600 nm (CellTiter-Blue assay) and at 660 nm (methylene blue assay). Doxorubicin (Adriamycin®) and imatinib (Gleevec®) were used as positive controls for HUVEC, K-562, and HeLa cells. A repeat determination has been conducted in all experiments, and four replicates were assayed. The calculations of the different values of GI50 and CC50 were performed with software Magellan version 3.00 (Tecan Trading AG, Maennedorf, Switzerland).
# [3] = test system: human lung carcinoma cells (A549); assay: antiproliferation assay (CellTiter-Blue); format: cell-based
# Description: as §1
# [4] = test system: human chronic myeloid leukemia cells (K-562); assay: antiproliferation assay (CellTiter-Blue); format: cell-based; conditions: Homo sapiens, read-out: Antiproliferative Effect, GI50 (CI 95%)
# Description: as §1
# [5] = test system: human umbilical vein endothelial cells (HUVEC); assay: antiproliferation assay (CellTiter-Blue); format: cell-based; conditions: Homo sapiens, 72 h, read-out: Antiproliferative Effect, GI50 (CI 95%)
# Description: as §1
# [6] = test system: human acute monocytic leukemia cells (THP-1); assay: antiproliferation assay (CellTiter-Blue); format: cell-based
# Description: as §1
# [7] = test system: Staphylococcus aureus (MRSA 134/94 R9); assay: agar diffusion antimicrobial assay; format: cell-based; conditions: 50 μL of 1 mg/mL in DMSO, 18 h, ciprofloxacin 5 µg/mL
# Description: (§2) Compounds 1, 2, 3, 5, 9, and 10 were tested for their antimicrobial activities against S. aureus (JMRC:STI 10760), B. subtilis (JMRC:STI 10880), S. aureus MRSA (JMRC: ST 33793) E. faecalis VRE (JMRC: ST 33700), E. coli (JMRC:ST 33699), P. aeruginosa (JMRC:ST 33771), P. aeruginosa (JMRC:ST 33772), M. vaccae (JMRC:STI 10670), S. salmonicolor (JMRC:ST 35974), C. albicans (JMRC:STI 25000), and P. notatum (JMRC:STI 50164)) using agar diffusion assay as previously published. Strains were obtained from the Jena Microbial Resource Collection (JMRC). The bacteria were cultivated on standard I nutrient agar in Petri dishes at 37 °C. Antifungal bioassays were conducted at 30 °C using the basidiomycetous yeast S. salmonicolor and the filamentous ascomycete P. notatum, which were cultivated on malt agar, and the ascomycetous yeast C. albicans, which was cultivated on yeast morphology agar. After inoculation of the test organisms, a disc (9 mm in diameter) was removed from the center of the Petri dish and 50 μL of the test solution (1 mg/mL in DMSO) was added to the cavity. After 18 h of incubation, the inhibiting areola were measured and documented as diameters in mm. Ciprofloxacin (5 µg/mL in deionized water) and amphotericin B (10 µg/mL in DMSO/MeOH 1:1) were used as reference substances against bacterial and fungal strains, respectively.
# [8] = test system: Enterococcus faecalis (VRE 1528 R10); assay: agar diffusion antimicrobial assay; format: cell-based; conditions: for zone of inhibition at 1000 µg/mL: Enterococcus faecalis (VRE 1528 R10), 50 μL of 1 mg/mL in DMSO, 18 h, ciprofloxacin 5 µg/mL, read-out: Inhibition Zone of Test Microorganism; for antibacterial activity in words: Enterococcus faecalis VRE, agar diffusion
# Description: as §2
# [9] = test system: Pseudomonas aeruginosa (K799/61 B9); assay: agar diffusion antimicrobial assay; format: cell-based; conditions: Pseudomonas aeruginosa (K799/61 B9); 50 μL of 1 mg/mL in DMSO, 18 h; ciprofloxacin 5 µg/mL
# Description: as §2
# [10] = test system: Pseudomonas aeruginosa (SG137 B7); assay: agar diffusion antimicrobial assay; format: cell-based; conditions: 50 μL of 1 mg/mL in DMSO, 18 h, ciprofloxacin 5 µg/mL
# Description: as §2
# [11] = test system: Bacillus subtilis (6633 B1); assay: agar diffusion antimicrobial assay; format: cell-based
# Description: as §2
# [12] = test system: Mycobacterium vaccae (10670 M4); assay: agar diffusion antimicrobial assay; format: cell-based
# Description: as §2
# [13] = Homo sapiens, A549, 72 h; read-out: Antiproliferative Effect, GI50 (CI 95%)
# [14] = Homo sapiens, THP-1, 72 h; read-out: Antiproliferative Effect, GI50 (CI 95%)
Structure (SMILES),"GI50 [3, 13]","GI50 ([4]; K562, K-562, 72 h)","GI50 [6, 14]",antiproliferative / cytotoxic effect in words [1],CC50 at 72 h ([2]; HeLa cells (DSM ACC 57)),GI50 [5],Inhibition Zone of Test Microorganism [7],zone of inhibition at 1000 µg/mL [8],antibacterial activity in words [8],Inhibition Zone of Test Microorganism [9],Inhibition Zone of Test Microorganism [10],CC50 at 72 h [2],"GI50 ([3]; Homo sapiens, A549, 72 h, read-out: Antiproliferative Effect, GI50 (CI 95%))","GI50 ([4]; K562, 72 h)","GI50 ([6]; Homo sapiens, THP-1, 72 h, read-out: Antiproliferative Effect, GI50 (CI 95%))","zone of inhibition at 1000 µg/mL ([11]; Bacillus subtilis (6633 B1), 50 μL of 1 mg/mL in DMSO, 18 h, ciprofloxacin 5 µg/mL, read-out: Inhibition Zone of Test Microorganism)","antibacterial activity in words ([11]; Bacillus subtilis, agar diffusion, compared to ciprofloxacin)","antibacterial activity in words ([12]; Mycobacterium vaccae, agar diffusion, compared to ciprofloxacin)","zone of inhibition at 1000 µg/mL ([12]; Mycolicibacterium vaccae, Mycobacterium vaccae (10670 M4), 50 μL of 1 mg/mL in DMSO, 18 h, ciprofloxacin 5 µg/mL, read-out: Inhibition Zone of Test Microorganism)"
"COc1ccccc1-c1coc2cc(O)c(OC)c(O)c2c1=O [Compound 8, 5,7-Dihydroxy-6,2′-dimethoxyisoflavone]",> 100 µM,> 100 µM,> 100 µM,reduced or no inhibitory effects,> 100 µM,> 100 µM,,,,,,,,,,,,,
"COc1cccc2c1C(=O)c1c(O)c3c(c(O)c1C2=O)C[C@@](O)(C(=O)CO)C[C@@H]3O[C@H]1C[C@H](N)[C@H](O)[C@H](C)O1 [Doxorubicin, reference compound]",,0.13 µM,,,0.48 µM,0.13 µM,,,,,,,,,,,,,
"O=C1C=CCCC(O)C2CC(=O)c3c(O)cc(cc3O2)OC2OC(CO1)C(O)C(O)C2O (stereo not drawn) [Compound 1, Moniristenulide]",> 100 µM,> 100 µM,> 100 µM,,> 100 µM,> 100 µM,-,13 mm,selective activity,-,-,,,,,,,,
"CC[C@H](CC[C@@H](C)[C@H]1CC[C@H]2[C@@H]3CC=C4C[C@@H](O)CC[C@]4(C)[C@H]3CC[C@]12C)C(C)C [Compound 12, β-Sitosterol]",,,,neither an antiproliferative effect nor a cytotoxicity,,> 100 µM,,,,,,> 100 µM,> 100 µM,> 100 µM,> 100 µM,,,,
"Cc1ccc(NC(=O)c2ccc(CN3CCN(C)CC3)cc2)cc1Nc1nccc(-c2cccnc2)n1 [Imatinib, imatinib, reference compound]",,0.2 µM,,,78.6 µM,22.1 µM,,,,,,,,,,,,,
"COc1cc2occ(-c3ccccc3OC3OC(CO)C(O)C(O)C3O)c(=O)c2c(O)c1OC [Compound 9, 5-Hydroxy-6,7-dimethoxyisoflavone-2′-O-β-D-glucopyranoside]",> 100 µM,> 100 µM,> 100 µM,completely not effective,> 100 µM,> 100 µM,-,13 mm,selective activity,-,-,,,,,,,,
"COc1c2c(cc3c1C1CC(O3)c3ccccc3O1)OCO2 (stereo not drawn) [Compound 2, 5-Methoxy-6,7-methylenedioxy-4-O-2′-cycloflavan]",> 100 µM,31.5 µM,29.2 µM,,42.6 µM,35.2 µM,-,14 mm,demonstrated activity,-,-,,,,,12 mm,demonstrated activity,demonstrated activity,17 mm

# Second part, led by results:
"GI50 [3, 13]","GI50 ([4]; K562, K-562, 72 h)","GI50 [6, 14]",Structure (SMILES),antiproliferative / cytotoxic effect in words [1],CC50 at 72 h ([2]; HeLa cells (DSM ACC 57)),GI50 [5],Inhibition Zone of Test Microorganism [7],zone of inhibition at 1000 µg/mL [8],antibacterial activity in words [8],Inhibition Zone of Test Microorganism [9],Inhibition Zone of Test Microorganism [10],CC50 at 72 h [2],"GI50 ([3]; Homo sapiens, A549, 72 h, read-out: Antiproliferative Effect, GI50 (CI 95%))","GI50 ([4]; K562, 72 h)","GI50 ([6]; Homo sapiens, THP-1, 72 h, read-out: Antiproliferative Effect, GI50 (CI 95%))","zone of inhibition at 1000 µg/mL ([11]; Bacillus subtilis (6633 B1), 50 μL of 1 mg/mL in DMSO, 18 h, ciprofloxacin 5 µg/mL, read-out: Inhibition Zone of Test Microorganism)","antibacterial activity in words ([11]; Bacillus subtilis, agar diffusion, compared to ciprofloxacin)","antibacterial activity in words ([12]; Mycobacterium vaccae, agar diffusion, compared to ciprofloxacin)","zone of inhibition at 1000 µg/mL ([12]; Mycolicibacterium vaccae, Mycobacterium vaccae (10670 M4), 50 μL of 1 mg/mL in DMSO, 18 h, ciprofloxacin 5 µg/mL, read-out: Inhibition Zone of Test Microorganism)"
> 100 µM,97.6 µM,> 100 µM,"COc1cc(O)c2c(c1)OC(c1cccc(O)c1OC)C(O)C2=O (stereo not drawn) [Compound 7, 3,5,3′-Trihydroxy-7,2′-dimethoxyflavanone]",reduced or no inhibitory effects,> 100 µM,> 100 µM,,,,,,,,,,,,,
70.9 µM,56 µM,16.9 µM,"COc1cc(O)c2c(c1)OC(c1cccc(O)c1O)CC2=O (stereo not drawn) [Compound 6, 5,2′,3′-Trihydroxy-7-methoxyflavanone]",,> 100 µM,68.2 µM,,,,,,,,,,,,,
81 µM,48.7 µM,16 µM,"O=C1CC(c2ccccc2O)Oc2cc3c(c(O)c21)OCO3 (stereo not drawn) [Compound 4, 5,2′-Dihydroxy-6,7-methylenedioxyflavanone]",,> 100 µM,73.3 µM,,,,,,,,,,,,,
